The values below come from patent US6297250A, “Pyrimidopyrimidine compounds” (Newcastle University Ventures Limited, priority 1997, dated 2001).

Usually IC50 stands for the concentration needed to halve the response being measured. Low values mean inhibition by little substance, high ones a need for much substance.

In this test the test system is L1210 cells. As to the kind of experiment: Nucleoside transport inhibition assay: inhibition of 3H-thymidine uptake, with or without AGP or HSA. In kind it is cell-based, murine. The conditions noted are these: for inhibition at 10 µM: L1210, 10 μM compound; for inhibition at 100 µM: L1210, 100 μM compound; for inhibition at 1 µM: L1210, 1 μM compound; for inhibition at 50 µM: L1210, 50 μM compound; for Effect of AGP on the inhibition of thymidine uptake: in words. On the procedure:
In vitro activity. […] For testing the compounds an established nucleoside transport assay involving measurement of thymidine uptake was adapted. Murine leukaemia L1210 cells were used in this assay as their nucleoside transport characteristics are well known. This assay for measuring thymidine uptake used a modification of the rapid mixing technique of Wohleheuter, R. […] Materials used included a transport buffer comprising 130 mM NaCl, 5 mM KC1, 1 mM MgCl, 5 mM NaH2 PO4, 10 mM glucose and 10 mM HEPES. This buffer was made up as sterile 5× concentrate and reconstituted in distilled water and adjusted to pH 7.4 immediately prior to carrying out the assay. […] The supernatant was aspirated and the cells were washed with ice-cold transport buffer and centrifuged again at 1000 rpm for 5 minutes at 4° C. The supernatant was removed and the cells were resuspended in ice-cold transport buffer to give a final cell density of 2-4×10^7 cells/mi. Cells were left on ice for 30 minutes recovery prior to starting the assay. […] The suspension was mixed well and 100 μl was layered onto 150 μl silicone oil (9:11 Dow Corning 556 (Sp.Gr. 0.98):Dow Corning 550 (Sp.Gr. 1.068) (final Sp.Gr. 1.028) overlaying 50 μl 3M KOH in 6 replicate 0.5 ml microfuge tubes. […] The tubes were immediately transferred to a microfuge (Eppendorf) and spun at 12000 rpm for 2 minutes to pellet the cells through the oil and into the KOH. The tubes were capped and the cells left to solubilise in the KOH for 1 hour. Cell number and viability for each run was determined by haemocytometer counting using trypan blue exclusion. […] The tubes were capped and cut in the oil layer such that the bottom portion (cells solubilised in KOH) fell into a 20 ml scintillation vial. 1 ml 0.25M acetic acid followed by 1 ml air was injected into the tube using a 2 ml syringe and 23-gauge needle to disperse and neutralise the KOH-solubilisedcells. 10 ml of Optiphase HiSafe™ scintillant was added and the vials capped and shaken. […] The [^14 C]:[^3 H] ratio was used to calculate the amount of non-transported contaminating [^3 H]thymidine in the extracellular space.

Where [1] appears, read: Mus musculus, no AGP, read-out: % Inhibition of 3H-thymidine uptake, No AGP.
Setting [2] is: Mus musculus, no AGP, 5% DMSO, read-out: % Inhibition of 3H-thymidine uptake, No AGP (5% DMSO).
Setting [3] is: 50 μM compound, no AGP, 5% DMSO, 50 µM.
[4] abbreviates: Mus musculus, +5 mg/ml AGP vs no AGP, read-out: % Reduction (of inhibition by AGP).
Setting [5] is: Mus musculus, +5 mg/ml AGP, read-out: % Inhibition of 3H-thymidine uptake, +5 mg/ml AGP.

Several values for one entry are separate records, joined by “and”; a condition that tells them apart may be missing. Equal entries are not always repeated. Where two headings read alike, the source gives them in different places.

As to `CCCOc1nc(N2CCCCC2)c2nc(OCCC)nc(N3CCCCC3)c2n1` [NU3064, 2,6-Di(n)propoxy-4,8-dipiperidinopyrimidopyrimidine], under setting [1], the inhibition at 10 µM amounted to 37 ± 11% and the inhibition at 100 µM worked out at 60 ± 9%. The same molecule yielded a half-maximal inhibitory concentration (IC50) (Mus musculus, L1210, no AGP) of 52000 nM.

Take `CCOC(C)(COc1nc(N2CCCCC2)c2nc(OCC(C)(OCC)OCC)nc(N3CCCCC3)c2n1)OCC` [NU3065, 2,6-bis(2',2'-Diethylacetal-1-propoxy)-4,8-dipiperidinopyrimidopyrimidine]: under setting [1], the inhibition at 1 µM is 30 ± 7%, the inhibition at 10 µM is 65 ± 9% and the inhibition at 100 µM was determined as 82 ± 16%. Besides, for the setting “Mus musculus, L1210, no AGP”, the IC50 was determined as 4240 nM.

`CC(=O)COc1nc(N2CCCCC2)c2nc(OCC(C)=O)nc(N3CCCCC3)c2n1` [NU3066, 2,6-Di(-2-oxopropoxy)-4,8-dipiperidinopyrimidopyrimidine]: the inhibition at 10 µM under setting [2] was found to be 58 ± 3%.

As for `COc1nc(N2CCCCC2)c2nc(OC)nc(N3CCCCC3)c2n1` [NU3067, 2,6-Dimethoxy-4,8-dipiperidinopyrimidopyrimidine], the “% Inhibition of 3H-thymidine uptake, No AGP (5% DMSO)” value (“% Inhibition … No AGP (5% DMSO)” below) under setting [3] turned out to be 76%. Besides, the inhibition at 10 µM under setting [2] came to 39 ± 7%. The inhibition at 50 µM (Mus musculus, no AGP, 5% DMSO) was 81%.

Turning to `CCOc1nc(N2CCCCC2)c2nc(OCC)nc(N3CCCCC3)c2n1` [NU3068, 2,6-Diethoxy-4,8-dipiperidinopyrimidopyrimidine], the “% Inhibition … No AGP (5% DMSO)” value under setting [3] is listed as 65%. Under setting [2], the inhibition at 10 µM came to 35 ± 4%. The inhibition at 50 µM (Mus musculus, no AGP, 5% DMSO) is 74%.

On to `CC(C)Oc1nc(N2CCCCC2)c2nc(OC(C)C)nc(N3CCCCC3)c2n1` [NU3069, 2,6-Di-iso-propoxy-4,8-dipiperidinopyrimidopyrimidine], for which, under setting [2], the inhibition at 10 µM amounted to 23 ± 12% and the inhibition at 100 µM is 64 ± 6%.

Take `CC(C)CCOc1nc(N2CCCCC2)c2nc(OCCC(C)C)nc(N3CCCCC3)c2n1` [NU3070, 2,6-Di-(3'-methylbutoxy)-4,8-dipiperidinopyrimidopyrimidine]: the “% Inhibition … No AGP (5% DMSO)” value (10 μM compound, no AGP, 5% DMSO, 10 µM) turned out to be 51%. Also, the inhibition at 10 µM under setting [2] stood at 46%.

As for `CC(C)COc1nc(N2CCCCC2)c2nc(OCC(C)C)nc(N3CCCCC3)c2n1` [NU3071, 2,6-Di-(2'-methylpropoxy)-4,8-dipiperidinopyrimidopyrimidine], under setting [2], the inhibition at 10 µM came to 25 ± 4% and the inhibition at 100 µM was found to be 65 ± 4%.

Regarding `C=CCOc1nc(N2CCCCC2)c2nc(OCC=C)nc(N3CCCCC3)c2n1` [NU3072, 2,6-Di-allyloxy-4,8-dipiperidinopyrimidopyrimidine], the “% Inhibition … No AGP (5% DMSO)” value (100 μM compound, no AGP, 5% DMSO, 100 µM) was 63%. Under setting [2], the inhibition at 10 µM is 52 ± 7% and the inhibition at 100 µM worked out at 66%.

Take `COCC(C)Oc1nc(N2CCCCC2)c2nc(OC(C)COC)nc(N3CCCCC3)c2n1` (stereo not shown) [NU3074, 2,6-Di(1'-methoxy-2'-methyl)ethoxy-4,8-dipiperidinopyrimidopyrimidine]: under setting [1], the inhibition at 10 µM worked out at 62 ± 10% and the inhibition at 100 µM was found to be 96 ± 7%.

Take `CC(O)COc1nc(N2CCCCC2)c2nc(OCC(C)O)nc(N3CCCCC3)c2n1` (stereo not shown) [NU3077, 2,6-Di(2'-hydroxypropoxy)-4,8-dipiperidinopyrimidopyrimidine]: the “Effect of AGP on the inhibition of thymidine uptake” value is given as “no significant reduction”. Besides, where the note is “1 μM compound, no AGP, 1 µM”, the “% Inhibition of 3H-thymidine uptake, No AGP” value came to 44 ± 8%. Besides, under setting [4], the inhibition at 1 µM was 55% and the inhibition at 10 µM is 25%. Under setting [5], the inhibition at 1 µM is 20 ± 10% and the inhibition at 10 µM is 69 ± 9%. For the same molecule, under setting [1], the inhibition at 1 µM stood at 47 ± 8% and the inhibition at 10 µM came out at 92 ± 10%. For the setting “Mus musculus, L1210, no AGP”, 900 nM corresponded to half-maximal inhibition (IC50). Also, it took 1130 nM to reach half-maximal inhibition (no AGP) (IC50).

As for `CC1(C)OC[C@@H](COc2nc(NCc3ccccc3)c3nc(OC[C@@H]4COC(C)(C)O4)nc(NCc4ccccc4)c3n2)O1` [NU3078, (R,R)-2,6-bis(2',2'-Dimethyl-1',3'-dioxolane-4'-methoxy)-4,8-dibenzylamino pyrimidopyrimidine], the “% Inhibition of 3H-thymidine uptake, No AGP” value (10 μM compound, no AGP) was found to be 46 ± 3%.

As to `OCCN(CCO)c1nc(NCc2ccc(C(F)(F)F)cc2)c2nc(N(CCO)CCO)nc(NCc3ccc(C(F)(F)F)cc3)c2n1` [NU3079, 2,6-bis(Diethanolamino)-4,8-di[(4'-trifluoromethylbenzyl)amino]pyrimido pyrimidine], under setting [1], the inhibition at 1 µM was 32 ± 11% and the inhibition at 10 µM came to 60 ± 7%.

On to `OCCN(CCO)c1nc(N2CCc3ccccc3C2)c2nc(N(CCO)CCO)nc(N3CCc4ccccc4C3)c2n1` [NU3080, 2,6-bis-Diethanolamino-4,8-di-(N-1,2,3,4-tetrahydroisoquinolyl)pyrimidopyrimidine], for which the inhibition at 1 µM under setting [1] was found to be 72 ± 22%. The inhibition at 10 µM by setting is: under setting [4], 31%; under setting [5], 69%; under setting [1], 100%. This molecule also gave an IC50 (Mus musculus, L1210, no AGP) of 720 ± 380 nM.

In the case of `COc1ccc(CNc2nc(N(CCO)CCO)nc3c(NCc4ccc(OC)c(OC)c4)nc(Cl)nc23)cc1OC` [NU3081, 2-chloro-6-diethanolamino-4,8-bis[(3',4'-dimethoxybenzyl)amino]pyrimidopyrimidine], under setting [1], the inhibition at 1 µM was found to be 59 ± 2% and the inhibition at 10 µM was 95 ± 9%. The molecule further returned a 50% inhibitory concentration (IC50) (Mus musculus, L1210, no AGP) of 710 nM.

In the case of `OCCN(CCO)c1nc(N2CCc3ccccc3C2)c2nc(Cl)nc(N3CCc4ccccc4C3)c2n1` [NU3082, 2-Chloro-6-diethanolamino-4,8-di-(N-1,2,3,4-tetrahydroisoguinolyl)pyrimidopyrimidine], the “% Inhibition of 3H-thymidine uptake, No AGP” value (1 μM compound, no AGP, 1 µM) is 9% and 0%. In addition, under setting [1], the inhibition at 10 µM amounted to 22 ± 14%.

Turning to `OCCN(CCO)c1nc(NCc2ccc(Cl)cc2)c2nc(N(CCO)CCO)nc(NCc3ccc(Cl)cc3)c2n1` [NU3083, 2,6-bis(Diethanolamino)-4,8-di[(4'-chlorobenzyl)amino]pyrimido pyrimidine], under setting [1], the inhibition at 1 µM turned out to be 53 ± 15% and the inhibition at 10 µM was 92 ± 14%. For the setting “Mus musculus, L1210, no AGP”, this molecule showed a half-inhibitory concentration (IC50) of 1110 nM.

Consider `COc1ccc(CNc2nc(N(CCO)CCO)nc3c(NCc4ccc(OC)c(OC)c4)nc(N(CCO)CCO)nc23)cc1OC` [NU3084, 2,6-bis(Diethanolamino)-4,8-bis[(3',4'-dimethoxybenzyl)amino]pyrimidopyrimidine], for which the “Effect of AGP on the inhibition of thymidine uptake” value is listed as “no significant reduction”. Moreover, the “% Inhibition of 3H-thymidine uptake, No AGP” value (1 μM compound, no AGP, 1 µM) worked out at 67 ± 10%. For the same molecule, under setting [4], the inhibition at 1 µM came out at 4% and the inhibition at 10 µM was found to be 5%. In addition, under setting [5], the inhibition at 1 µM stood at 64 ± 3% and the inhibition at 10 µM worked out at 93 ± 10%. Besides, under setting [1], the inhibition at 1 µM was 74 ± 16% and the inhibition at 10 µM turned out to be 98 ± 5%. Under “Mus musculus, L1210, no AGP”, this molecule yielded a concentration for half-maximal inhibition (IC50) of 250 nM. For the setting “presence and absence of AGP, or of 40 mg/ml human serum albumin”, the “Potency as inhibitor relative to dipyridamole” value is given as “more potent inhibitors than dipyridamole”.

With `OCCCOc1nc(N2CCCCC2)c2nc(OCCCO)nc(N3CCCCC3)c2n1` [NU3085, 2,6-Di(3'-hydroxypropoxy)-4,8-dipiperidinopyrimidopyrimidine], the “% Inhibition of 3H-thymidine uptake, No AGP” value (10 μM compound, no AGP, 10 µM) was 100% and 76%. Under setting [1], the inhibition at 1 µM is 35 ± 5%. In addition, under “Mus musculus, L1210, no AGP”, half-maximal inhibition (IC50) was put at 2360 nM.
